Assay results reported in publication PMC12397098, “3-Monothiopomalidomide, a new immunomodulatory imide drug (IMiD), blunts inflammation and mitigates ischemic stroke in the rat” (GeroScience, 2025).
Read-outs that look alike come from different tables or passages of the source.

Experiments:
[1] = tested on: LPS-induced cytokines (TNF-α, IL-6, IL-10, IL-13) in plasma and cerebral cortex; experiment: Systemic and brain LPS anti-inflammatory study in rats; assay type: in vivo; conditions: rat, LPS 1 mg/kg, 4 h
Experimental: They were administered, via the intraperitoneal (I.P.) route, nano-formulated 3-MP at a dose of 13.25 or 26.5 mg/kg (equimolar to a clinically translatable dose of 12.5 and 25 mg/kg thalidomide), vehicle or pomalidomide (25 mg/kg). One hour later, animals were administered either LPS (1 mg/kg, E.Coli 055:B5, Sigma Aldrich, in normal saline, 0.5 mg/mL) or an alike volume of saline (without LPS) via the I.P. route. The LPS dose was selected from prior pilot studies to provide a substantial but sub-maximal rise in plasma proinflammatory cytokine levels, in line with our prior research. The selected 3-MP and pomalidomide doses were chosen as they are equimolar to, or are less than, doses of thalidomide and analogues that have been verified to be well tolerated in our previous studies and are of translational relevance to humans. Four hours after LPS administration, the animals were euthanized, and blood and brain tissues were collected and placed on wet ice. Plasma was quickly separated from blood by centrifugation (10,000 × g, 5 min, 4 °C) and together with the brain samples (cerebral cortex) was stored at − 80 °C. At a later time, cerebral cortex samples were sonicated in a TRIS-based lysis buffer (Mesoscale Discovery) with 3 × protease/phosphatase inhibitors (Halt™ Protease and Phosphatase Inhibitor Cocktail, Thermo Fisher Scientific, Waltham, MA, USA). Samples were then centrifuged (10,000 × g, 5 min, 4 °C), supernatant separated, and protein concentrations were quantified by bicinchoninic acid assay (BCA, Thermo Fisher Scientific). Rat plasma and cerebral cortex samples were analyzed by multi-proinflammatory cytokine ELISA (V-PLEX Proinflammatory Panel 2 Rat Kit, Mesoscale Discovery) following the manufacturer’s protocol to quantify TNF-α, IL-6, IL-10, and IL-13 levels.

[2] = tested on: LPS-induced cytokines (TNF-α, IL-6, IL-10, IL-13) in plasma and cerebral cortex; experiment: as above; assay type: in vivo; conditions: rat, 1 h pre-treatment, 3-MP 13.23 and 26.47 mg/kg I.P., pomalidomide 25 mg/kg I.P., LPS 1 mg/kg I.P., 4 h
[3] = set-up: method as in earlier work; conditions: nonhuman primate (cynomolgus monkey); cited from earlier work
[4] = cited from earlier work
[5] = set-up: method as in earlier work; conditions: rat; cited from earlier work
[6] = Pharmacokinetic evaluations of 3,6’-DP in rats; assay type: in vivo, rat; conditions: authors' recent pharmacokinetic evaluations, no data shown
[7] = set-up: method as in PMID 32589144; conditions: cited from earlier work
[8] = tested on: IL-1β, TNF-α and IL-10 levels in animals with MCAo; set-up: method as in PMID 35631536; conditions: cited from earlier work
[9] = Sprague Dawley, rat, microsomes, 1 h, 1 μM
in vitro = conditions: Sprague Dawley, rat, microsomes
[10] = human, microsomes, 1 μM
[11] = Liver microsomal stability, rat
[12] = Liver microsomal stability, human; conditions: 1 μM
[13] = Sprague Dawley, rat, microsomes

## Nc1cccc2c1C(=O)N(C1CCC(=O)NC1=O)C2=O (stereo not shown) [pomalidomide]
[1]; 3-MP both doses and pomalidomide I.P.
  LPS-mediated elevations in brain IL-13: maintained
[1]; 3-MP low dose 13.25 mg/kg I.P., pomalidomide 25 mg/kg I.P.
  decline in IL-6 brain levels: failed to achieve statistical significance
[1]; high- or low-dose 3-MP or pomalidomide I.P.
  IL-10 elevation induced by LPS in plasma or brain: not lessened
[2]
  LPS-induced cytokine changes in plasma and cerebral cortex: significantly mitigated
[3]
  bioavailability: 15%
[4]
  brain/plasma concentration ratio: 0.71
[5]
  bioavailability: 13%

## Nc1cccc2c1C(=S)N(C1CCC(=S)NC1=O)C2=O (stereo not shown) [3,6’-DP, 3,6’-dithiopomalidomide]
[6]
  disappearance from plasma: disappears relatively rapidly
  oral bioavailability: low
[7]
  brain/plasma concentration ratio: 0.8
[8]
  IL-1β levels: significantly reduce
  IL-10 levels: increased substantially
  TNF-α levels: significantly reduce

## O=C(O)Cc1ccccc1Nc1c(Cl)cccc1Cl [Diclofenac, diclofenac, reference compound]
[9]
  Remaining (NCF = 60 min): 107.9%
  Remaining (T = 60 min): 2.2%
In vitro
  CLint scaled at 1 μM: 227 mL/min/kg
  microsomal CLint at 1 μM: 126 µL/min/mg
[10]
  Clint(liver): 292.3 mL/min/kg
  Clint(mic): 324.8 µL/min/mg
[10]; 1 h
  Remaining (NCF = 60 min): 101.0%
  Remaining (T = 60 min): 0.0%

## C[C@]12CC[C@H]3[C@@H](CCC4=CC(=O)CC[C@@]43C)[C@@H]1CC[C@@H]2O [Testosterone, testosterone]
[11]; [13]
  CLint scaled at 1 μM: 3910 mL/min/kg
  microsomal CLint at 1 μM: 2170 µL/min/mg
[11]; rat liver microsomes with NADPH, 1 μM, 60 min
  Remaining (T = 60 min): 0.1%
[11]; rat liver microsomes, no co-factor (no NADPH), 1 μM, 60 min
  Remaining (NCF = 60 min): 103.7%
[12]; human liver microsomes with NADPH, 60 min
  Remaining (T = 60 min): 13.2%
[12]; human liver microsomes with NADPH, scaled from Clint(mic)
  Clint(liver): 59.0 mL/min/kg
[12]; human liver microsomes, no co-factor (no NADPH), 60 min
  Remaining (NCF = 60 min): 97.1%
